Laboratory results as given in EP0252299A2, “Use of 12-amino-pyridazino[4',5':3,4]pyrrolo[2,1-a]isoquinolines in the preparation of cardioprotective and neuroprotective agents” (BOEHRINGER INGELHEIM KG, priority 1986, dated 1988).

Columns and labels:
Kaninchen-Aortenstreifen = assay: Calcium ion kinetics (45Ca2+ efflux) in rabbit aortic strips; conditions: for Potenzierung des stimulierten Ca²⁺-Efflux: stimulation with 80 mM K⁺
Text: Bestimmung der Calcium-Ionenkinetik an Kaninchen-Aortenstreifen
Methode nach C. van Breemen, P. Aaronson, R. Loutzenheiser und K. Meisheri CHEST 78: 157s - 165s (1980) und R. Casteels & G. Droogman J. Physiol 317: 263 - 279 (1981)
Methode: Mit ⁴⁵Ca²⁺ geladene Aortenstreifen werden sequentiell äquilibriert in physiologischer Lösung. Dabei tauscht das intrazelluläre Ca²⁺ mit dem extrazellulären Ca²⁺ aus, das heißt im extrazellulären Bad ist das radioaktive ⁴⁵Ca²⁺ meßbar. Auf eine Stimulation mit 80 mM K⁺ oder 10⁻⁵ Mol/l Noradrenalin (NA) hin wird der Austausch beschleunigt. Dabei ist die im Bad ansteigende Radioaktivität ein Maß für den Ca²⁺-Efflux. So wird das Ausmaß der durch die Stimulation freigesetzten Ca²⁺ als Effluxrate bestimmt.

Tieren = assay: Hypoxia tolerance test: survival of animals in a closed chamber; assay type: in vivo; conditions: gas mixture 96,5 % nitrogen and 3,5 % oxygen; doses up to 30 mg/kg
[1] = system: myocardiale Radio-Calciumaufnahme; assay: Cardioprotective effect: inhibition of isoprenaline-induced myocardial radio-calcium uptake in conscious rats (method of Arndts); assay type: in vivo, Ratten; conditions: s.c. or p.o., dose that inhibits by 50 % the myocardial radio-calcium uptake caused by 30 mg/kg s.c. Isoprenalin
Text: Die cardioprotektive Wirkung wird auf folgende Weise bestimmt: Bekanntlich ist der mycardiale Ca⁺²-Gehalt ein Maß für die hypoxische bzw. die durch toxische Catecholamindosen hervorgerufene Herzschädigung (Higgins et al., Mol. Cell. Cardiol. 10: 427 - 438, 1984; Nakanishi et al., Am. J. Physiol. 242: 437 - 449, 1982; Fleckenstein, A., Vorträge der Erlanger Physiol. Tagung 1970, Ed. Keidel, Springer Verlag Berlin, Heidelberg, New York, 1971). Umgekehrt ist die Inhibition der hypoxischen oder Isoprenalin-bedingten myocardialen Calciumaufnahme ein Maß für die cardioprotektive Effektivität von Calciumantagonisten (Fleckenstein s.o.), von Calmodulininhibitoren (Higgins) und anderen Pharmaka, z.B. Betaadrenolytika (Arndts, Arzneimittelforschung 25: 1279 -1284, 1975).
Die cardioprotektive Wirkung wurde an wachen Ratten nach subcutaner oder peroraler Wirkstoffgabe anhand der von Arndts (s.o.) beschriebenen Methode festgestellt, und die Wirkungsstärke der Testsubstanzen als H₅₀-Wert angegeben; dieser Wert entspricht der Dosis, die die durch eine Gabe von 30 (mg/kg; s.c.) Isoprenalin bedingte, myocardiale Radio-Calciumaufnahme zu 50 % hemmt. Hier erwiesen sich die untersuchten neuen Verbindungen als ebenso wirksam wie Nifedipin.

[2] = Scopolamine-induced impairment of short-term memory (scopolamine dementia); assay type: in vivo; conditions: Scopolamin 0,6 mg/kg i.p.
Text: In Vesuchen mit Einschränkung des Kurzzeitgedächtnisses bzw.

Isoliertes Rattenherz = assay: Isolated Langendorff rat heart, low-flow oxygen deficiency and reperfusion: time to onset of regular contractions; parameters: species or system Ratten; conditions: concentration giving a significant reduction of the time to onset of regular contractions; infusion during O2 deficiency
Protocol: Die Untersuchungen am isolierten Langendorff-Herzen wurden nach O. Langendorff, Pflügers Arch. 61, 291 (1895) mit kleinen Abwandlungen ausgeführt:
Isoliertes Rattenherz, retrograde Perfusion über die Aorta. Elektrische Stimulation (300 Impulse/min. Impulsdauer Imsec.). Messung des linksventrikulär entwickelten Druckes mit flüssigkeitsgefülltem Latex-Ballon. Nach 20 min Aequilibrierung Auslösen eines Sauerstoff-Mangelzustandes mit 100-fach vermindertem Fluß durch Drosselung des Perfusionsflusses für 60 min, Rückkehr zu normalem Fluß bewirkt starken Anstieg der Grundspannung, unter Kontrollbedingungen setzt die Herztätigkeit nach 6 - 7 min unregelmäßig wieder ein, nach 15 -18 min rascher Übergang zu regelmäßigen Kontraktionen. Cardioprotektiv wirksame Verbindungen verkürzen die Zeit bis zum Einsetzen regelmäßiger Kontraktionen. Infusion der Testsubstanz (gelöst in unbegastem Perfusionsmedium) während des 0₂-Mangelzustandes herznah in das Perfusionssystem.
Die getesteten Verbindungen ergaben bei Anwendung in der unten angegebenen Konzentration eine signifikante Reduktion der Zeit bis zum Einsetzen regelmäßiger Kontraktionen.

[3] = Microiontophoresis (standard method)
Text: Die Mikrointophorese wurde gemäß Standardmethode durchgeführt.

Compound | Hypoxie (Tieren) | H50-Wert [1] | Scopolamin-Demenz ([2]; doses up to 30 mg/kg) | also measured
3,4-Dihydro-6,7-dimethoxy-12-ethylamino-pyridazino-[4ʹ,5ʹ : 3,4] pyrrolo [2,1-a] isochinolin [B] | wirksam (wirksam: Im Dosenbereich bis einschließlich 30 mg/kg zeigen in der mit Substanz behandelten Tiergruppe signifikant mehr Tiere den gewünschten Effekt als in der Kontrollgruppe.) | – | – | Potenzierung des stimulierten Ca²⁺-Efflux (Kaninchen-Aortenstreifen): 27%
12-Allylamino-3,4-dihydro-6,7-dimethoxy-pyridazino-[4ʹ,5ʹ : 3,4] pyrrolo[2,1-a]isochinolin | – | 2,42 | – | –
COc1ccc(CCN(C)CCCC(C#N)(c2ccc(OC)c(OC)c2)C(C)C)cc1OC (stereo not drawn) [Verapamil] | – | – | unwirksam | –
3,4-Dihydro-6,7-dimethoxy-12-(2-methoxyethyl)-amino-pyridazino [4ʹ,5ʹ : 3,4] pyrrolo [2,1-a] isochinolin | – | 1,92 | – | –
3,4-Dihydro-6,7-dimethoxy-12-benzylamino-pyridazino[4ʹ,5ʹ : 3,4] pyrrolo[2,1-a]isochinolin [Verbindung H] | – | – | wirksam (wirksam: Im Dosenbereich bis einschließlich 30 mg/kg zeigen in der mit Substanz behandelten Tiergruppe signifikant mehr Tiere den gewünschten Effekt als in der Kontrollgruppe.) | –
3,4-Dihydro-6,7-dimethoxy-12-(3-dimethylaminopropyl)-aminopyridazino [4ʹ,5ʹ : 3,4]pyrrolo[2,1-a]isochinolin | wirksam (wirksam: Im Dosenbereich bis einschließlich 30 mg/kg zeigen in der mit Substanz behandelten Tiergruppe signifikant mehr Tiere den gewünschten Effekt als in der Kontrollgruppe.) | 0,46 | – | Potenzierung des stimulierten Ca²⁺-Efflux (Kaninchen-Aortenstreifen): 11%; Hemmung des stimulierten Ca²⁺-Efflux (Kaninchen-Aortenstreifen; stimulation with 10⁻⁵ Mol/l Noradrenalin (NA)): 19%; Konzentration (Isoliertes Rattenherz): 13,3 µg/ml; Mikroiontophorese [3]: wirksam (wirksam: Im Dosenbereich bis einschließlich 30 mg/kg zeigen in der mit Substanz behandelten Tiergruppe signifikant mehr Tiere den gewünschten Effekt als in der Kontrollgruppe.)
COC(=O)C1=C(C)NC(C)=C(C(=O)OC)C1c1ccccc1[N+](=O)[O-] [Nifedipin] | unwirksam | – | – | Scopolamin-Demenz ([2]; dose 1 mg/kg): wirksam (wirksam: Im Dosenbereich bis einschließlich 30 mg/kg zeigen in der mit Substanz behandelten Tiergruppe signifikant mehr Tiere den gewünschten Effekt als in der Kontrollgruppe.); Scopolamin-Demenz ([2]; dose 3-30): unwirksam
COc1ccc([C@@H]2Sc3ccccc3N(CCN(C)C)C(=O)[C@@H]2OC(C)=O)cc1 [Diltiazem, reference compound] | unwirksam | – | unwirksam | –
3,4-Dihydro-6,7-dimethoxy-12-isopropylamino-pyridazino-[4ʹ,5ʹ : 3,4] pyrrolo [2,1-a] isochinolin | wirksam (wirksam: Im Dosenbereich bis einschließlich 30 mg/kg zeigen in der mit Substanz behandelten Tiergruppe signifikant mehr Tiere den gewünschten Effekt als in der Kontrollgruppe.) | – | – | –
